From US8889699B2, “5-fluorouracil derivative” (Delta-Fly Pharma, Inc., priority 2009, dated 2014) come the findings set out here.

The structures appear in SMILES notation. Where two headings read alike, the source gives them in different places.

The target in the experiment is T1, OPRT (Homo sapiens, UniProt P11172).
T1 construct: the obtained supernatant was used as a DPD enzyme solution or an OPRT enzyme solution; from tissue; 105,000 g supernatant of homogenate
T1 sequence (P11172 1-480): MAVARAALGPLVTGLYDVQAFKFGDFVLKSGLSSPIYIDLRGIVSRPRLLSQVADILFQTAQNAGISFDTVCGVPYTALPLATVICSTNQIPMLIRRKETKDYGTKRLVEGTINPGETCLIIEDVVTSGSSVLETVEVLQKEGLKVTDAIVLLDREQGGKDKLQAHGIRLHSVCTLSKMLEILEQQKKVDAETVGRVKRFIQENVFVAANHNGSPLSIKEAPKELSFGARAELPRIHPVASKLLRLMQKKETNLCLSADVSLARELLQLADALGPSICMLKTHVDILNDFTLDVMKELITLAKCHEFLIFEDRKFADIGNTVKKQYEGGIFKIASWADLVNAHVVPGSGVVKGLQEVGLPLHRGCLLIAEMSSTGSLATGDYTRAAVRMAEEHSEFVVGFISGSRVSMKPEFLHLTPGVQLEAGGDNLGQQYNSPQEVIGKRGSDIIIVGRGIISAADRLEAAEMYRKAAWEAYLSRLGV
Put plainly: OPRT inhibitory action in vitro (enzyme reaction, tritium-labeled 5-FU as substrate). Type of experiment: biochemical. As for the experimental part:
The resulting product was diluted to concentrations of 1 mM, 100 μM, 10 μM, and 1 μM with a 10 mM potassium phosphate buffer solution (pH 6.0), thereby obtaining Test Liquids 1. The obtained Test Liquids 1 were separately added to the enzyme reaction solution described below to give final concentrations of 200 μM, 20 μM, 2 μM, and 0.2 μM. • (b) Test liquid preparation (2): As a DPD inhibitor, 5-chloro-2,4-dihydroxypyridine (CDHP; gimeracil) was dissolved to a concentration of 10 mM in a 10 mM potassium phosphate buffer solution (pH 6.0). The resulting product was diluted to concentrations of 1 mM, 100 μM, 10 μM, and 1 μM, thereby obtaining Test Liquids 2. The obtained Test Liquids 2 were separately added to the enzyme reaction solution to give final concentrations of 200 μM, 20 μM, 2 μM, and 0.2 μM. • (c) Test liquid preparation (3): As an OPRT inhibitor, citrazinic acid (Citra. A.) was dissolved to a concentration of 10 mM in 20 mM trishydroxyaminomethane-hydrochloric buffer solution (pH 8.0). Thereafter, the resulting product was diluted to concentrations of 1 mM, 100 μM, and 10 μM with a 10 mM potassium phosphate buffer solution, thereby obtaining Test Liquids (3). The obtained Test Liquids 3 were separately added to the enzyme reaction solution to give final concentrations of 200 μM, 20 μM, and 2 μM. • (d) Preparation of enzyme solution: The liver of an 8-week old SD rat was used as a DPD enzyme source, while human tumor cells that had been transplanted into a nude mouse and proliferated therein were used as an OPRT enzyme source. Specifically, immediately after a rat liver or successively-transplanted human tumor cells were extracted, a 50-mM tris-hydrochloric acid buffer solution (pH 8.0) containing 0.25 M saccharose, 5 mM magnesium chloride, and 1 mM dithreitol was added thereto to a concentration of 25% (w/v) and homogenized. Thereafter, ultracentrifugation was performed at 105,000 g for 60 minutes, and the obtained supernatant was used as a DPD enzyme solution or an OPRT enzyme solution. • (e) Enzyme reaction: A DPD enzyme reaction was carried out in accordance with the method of Tatsumi et al. (Gann, 78: 748-755 (1987)) using 5-FU labeled with tritium as a substrate. An OPRT enzyme reaction was carried out in accordance with the method of Shirasaka et al. (Cancer Res., 53: 4004-4009 (1993)) using 5-FU labeled with tritium as a substrate. Then, the activity of a control group (with no test compound) and test compound groups was measured. The percent inhibition of the test compound relative to DPD or OPRT was calculated using the following formula: [1-(the enzyme activity with the test compound/the enzyme activity of the control group)]×100(%).
The resulting product was diluted to concentrations of 1 mM, 100 μM, 10 μM, and 1 μM with a 10 mM potassium phosphate buffer solution (pH 6.0), thereby obtaining Test Liquids 1. The obtained Test Liquids 1 were separately added to the enzyme reaction solution described below to give final concentrations of 200 μM, 20 μM, 2 μM, and 0.2 μM. • (b) Preparation of enzyme solution: The liver of an 8-week old SD rat was used as a DPD enzyme source, while human tumor cells that had been transplanted into a nude mouse and proliferated therein were used as an OPRT enzyme source. Specifically, immediately after a rat liver or successively-transplanted human tumor cells were extracted, a 50-mM tris-hydrochloric acid buffer solution (pH 8.0) containing 0.25 M saccharose, 5 mM magnesium chloride, and 1 mM dithreitol was added thereto to a concentration of 25% (w/v) and homogenized. Thereafter, ultracentrifugation was performed at 105,000 g for 60 minutes, and the obtained supernatant was used as a DPD enzyme solution or an OPRT enzyme solution. • (c) Enzyme reaction: A DPD enzyme reaction was carried out in accordance with the method of Tatsumi et al. (Gann, 78: 748-755 (1987)) using 5-FU labeled with tritium as a substrate. […]

The mark [1] stands for this setting: 0.2 μM, Table 2, read-out: OPRT Inhibition (%).
Setting [2] is: 2 μM, Table 2, read-out: OPRT Inhibition (%).
[3] abbreviates: Conc. 0.2 μM, Table 1, read-out: OPRT Inhibitory Activity: Inhibition.
[4] abbreviates: Conc. 2 μM, Table 1, read-out: OPRT Inhibitory Activity: Inhibition.

One may read the inhibition as the change of the read-out against control, counted positive when it falls. Consider `O=C(O)c1cc(O)nc(O)c1` [Citra. A., citrazinic acid, reference compound], for which the inhibition at 0.2 µM came out at 31.9% under setting [1] and 0% under setting [3]. The inhibition at 2 µM under setting [2] is 75.1% and the inhibition at 2 µM under setting [4] was determined as 20%. Besides, the “OPRT Inhibitory Activity: Activity” value was 0.379 nmol/mL/min (Conc. 0.2 μM, Table 1); 0.301 nmol/mL/min (Conc. 2 μM, Table 1); 0.173 nmol/mL/min (Conc. 20 μM, Table 1); 0.075 nmol/mL/min (Conc. 200 μM, Table 1). This compound also showed an inhibition at 20 µM (Conc. 20 μM, Table 1) of 54%. For the setting “Conc. 200 μM, Table 1”, at 200 µM the inhibition was 80%.
Regarding `CCOCn1cc(F)c(=O)n(C(=O)c2cccc(C(=O)Oc3cc(OC(=O)c4cc(O)nc(O)c4)c(Cl)cn3)c2)c1=O` [Compound I-2, 3-{3-[4-(2,6-dihydroxyisonicotinoyloxy)-5-chloro-2-pyridyloxycarbonyl]benzoyl}-1-ethoxymethyl-5-fluorouracil], the “OPRT Inhibitory Activity: Activity” value is, setting by setting: (Conc. 0.2 μM, Table 1) 0.375 nmol/mL/min; (Conc. 2 μM, Table 1) 0.280 nmol/mL/min; (Conc. 20 μM, Table 1) 0.168 nmol/mL/min; (Conc. 200 μM, Table 1) 0.069 nmol/mL/min. For the same compound, the inhibition at 0.2 µM under setting [3] was 0%. Further, the inhibition at 2 µM under setting [4] turned out to be 25.5%. Further, the inhibition at 20 µM (Conc. 20 μM, Table 1) worked out at 55.3%. For the same compound, the inhibition at 200 µM (Conc. 200 μM, Table 1) stood at 81.6%.
Turning to `CCOCn1cc(F)c(=O)n(C(=O)c2cccc(C(=O)Oc3cc(OC(=O)c4cc(OC(=O)C5CCCC5)nc(OC(=O)C5CCCC5)c4)c(Cl)cn3)c2)c1=O` [Compound I-9, 3-{3-[4-(2,6-dicyclopentanecarbonyloxyisonicotinoyloxy)-5-chloro-2-pyridyloxycarbonyl]benzoyl}-1-ethoxymethyl-5-fluorouracil], the inhibition at 0.2 µM under setting [1] amounted to 41.2%. For the same compound, the inhibition at 2 µM under setting [2] stood at 75.9%.
For `CCOCn1cc(F)c(=O)n(C(=O)c2cccc(C(=O)Oc3cc(OC(=O)c4cc(OC(C)=O)nc(OC(C)=O)c4)c(Cl)cn3)c2)c1=O` [Compound I-10, 3-{3-[4-(2,6-diacetyloxyisonicotinoyloxy)-5-chloro-2-pyridyloxycarbonyl]benzoyl}-1-ethoxymethyl-5-fluorouracil], under setting [1], the inhibition at 0.2 µM was determined as 27.8%. In addition, under setting [2], the inhibition at 2 µM came out at 76.4%.
For orientation: IC50 means the concentration needed to halve the response being measured. With `CCOCn1cc(F)c(=O)n(C(=O)c2cccc(C(=O)Oc3cc(OC(=O)c4cc(OC(=O)CC)nc(OC(=O)CC)c4)c(Cl)cn3)c2)c1=O` [Compound I-11, 3-{3-[4-(2,6-dipropionyloxyisonicotinoyloxy)-5-chloro-2-pyridyloxycarbonyl]benzoyl}-1-ethoxymethyl-5-fluorouracil], the IC50 (5-FU as substrate, Test Example 4, read-out: IC50 of OPRT activity inhibition) is ~15 µM. Besides, the “OPRT Inhibitory Activity: Activity” value reads like this: (Conc. 0.2 μM, Table 5) 0.101 nmol/mL/min; (Conc. 2 μM, Table 5) 0.098 nmol/mL/min; (Conc. 20 μM, Table 5) 0.046 nmol/mL/min. Moreover, under “Conc. 0.2 μM, Table 5, read-out: OPRT Inhibitory Activity: Inhibition”, the inhibition at 0.2 µM worked out at 42.6%. Further, the inhibition at 2 µM (Conc. 2 μM, Table 5, read-out: OPRT Inhibitory Activity: Inhibition) stood at 73.4%. This compound also came in with an inhibition at 20 µM (Conc. 20 μM, Table 5) of 87.5%.
